Data from PMC6680430, “Quantitative Prediction of Human Pharmacokinetics and Pharmacodynamics of CKD519, a Potent Inhibitor of Cholesteryl Ester Transfer Protein (CETP)” (Pharmaceutics, 2019).
≈ marks a conversion by molar mass, not a printed value.

Assays:
[1] = human PK parameter prediction by allometric scaling; conditions: 60 kg human
From the text: The volume parameters (Vc, Vp) estimated from the PK models for three different species were correlated through simple allometric scaling (=Body weight-dependent allometry) in the PK model fitted to the overall data from all species. This method is based on the power–law function, which can be represented as follows:Y = a × BW^b,(2) where Y represents the PK parameter of interest from each animal; BW represents the average body weight of each species from the relevant in vivo studies; and a and b are the allometric coefficient and exponent of the equation, respectively.
For the allometric scaling of the clearance parameters (CL, Q) in the same model, physiological parameters such as brain weight (BrW) or maximum lifespan potential (MLP) of each species were incorporated if necessary. To address the uncertainty, two allometric relationships were selected as the final models, and two sets of human PK parameters were predicted: one from the allometry of best fit and the other from the most conventional simple allometry. The appropriateness of the extrapolated human PK parameter values was assessed by comparing them with those of the comparator. Since allometric scaling is not generally recommended for the absorption parameter, human absorption parameters were determined by the final estimates from the overall PK model instead of the allometric method.
As mentioned in Section 2.4, predicted human (with the body weight of 60 kg) PK parameter values were obtained using the simple and BrW-corrected (the best fit) allometric relationships and the final estimates for allometric coefficient and exponent in overall PK models.

CETP = assay: human PK/PD modeling and simulation of CETP inhibition
Procedure: The efficacious dose was defined as the dose accomplishing the threshold in ≥50% of the population, which was determined using the median. Thus, the variability of the parameters was not incorporated in the simulation.

[2] = brain weight-corrected allometry

## COc1cc(F)c(C(C)C)cc1C1=C(CN2C(=O)O[C@H](c3cc(C(F)(F)F)cc(C(F)(F)F)c3)[C@@H]2C)CC(C)(C)CC1 [CKD519]
[1]; [2]
  CL, predicted human: 0.777 L/h
  F 50, predicted human: 10.6
  F max, predicted human: 0.192
  Q, predicted human: 2.39 L/h
  Vc, predicted human: 4.41 L
  Vp, predicted human: 48.8 L
  α, predicted human: 4.51
  β, predicted human: 3.11
[1]; simple allometry
  CL, predicted human: 0.264 L/h
  F 50, predicted human: 10.6
  F max, predicted human: 0.192
  Q, predicted human: 1.17 L/h
  Vc, predicted human: 3.29 L
  Vp, predicted human: 49.7 L
  α, predicted human: 4.51
  β, predicted human: 3.11
CETP; comparator in vivo IC50 22 nM scaled by in vitro potency ratio, read-out: assumed in vivo IC50
  IC50: 37 nM
CETP; corresponds to 22 nM (reported PD parameter of comparator scenario)
  IC50 reflected in the PD model: 0.01322 µg/mL (≈ 0.022 µM)
CETP; corresponds to 37 nM (in vitro potency ratio scenario)
  IC50 reflected in the PD model: 0.02224 µg/mL
